US6355799B1, “Substituted benzene compounds, process for their preparation, and herbicidal and defoliant compositions containing them” (ISK Americas Incorporated, priority 1997, dated 2002)
Read-outs that look alike come from different tables or passages of the source.

Legend:
Format in all cases: in vivo
[1] = system: ivyleaf morningglory (Ipomoea hederacea, IPOHE); test: Post-emerge test, greenhouse herbicide activity screening; settings: Ipomoea, post-emergence, 336 h, read-out: Post-emerge Herbicidal Activity IPOHE; for pest or weed control at 63 g/ha: 63 g ai/ha; for pest or weed control at 250 g/ha: 250 g ai/ha
In short: (§1)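 Compounds in acetone were track-sprayed at 187 l/ha, 15–1000 g ai/ha, onto sandy loam pots. Pre-emerge seeds were sown one day before spraying, with surface watering afterwards. Post-emerge plants were at the 2–3 leaf stage and sprayed with 0.25% v/v non-ionic surfactant. Injury was rated 0–100 at 14 days.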

[2] = system: velvetleaf (Abutilon theophrasti, ABUTH); test: as above; settings: Abutilon theophrasti, post-emergence, 336 h, read-out: Post-emerge Herbicidal Activity ABUTH; for pest or weed control at 63 g/ha: 63 g ai/ha; for pest or weed control at 250 g/ha: 250 g ai/ha
In short: as §1

[3] = system: lambsquarters (Chenopodium album, CHEAL); test: as above; settings: Chenopodium album, post-emergence, 336 h, read-out: Post-emerge Herbicidal Activity CHEAL; for pest or weed control at 63 g/ha: 63 g ai/ha; for pest or weed control at 250 g/ha: 250 g ai/ha
In short: as §1

[4] = system: large crabgrass (Digitaria sanguinalis, DIGSA); test: as above; settings: Digitaria sanguinalis, post-emergence, 336 h, read-out: Post-emerge Herbicidal Activity DIGSA; for pest or weed control at 63 g/ha: 63 g ai/ha; for pest or weed control at 250 g/ha: 250 g ai/ha
In short: as §1

[5] = system: redroot pigweed (Amaranthus retroflexus, AMARE); test: as above; settings: Amaranthus retroflexus, post-emergence, 336 h, read-out: Post-emerge Herbicidal Activity AMARE; for pest or weed control at 63 g/ha: 63 g ai/ha; for pest or weed control at 250 g/ha: 250 g ai/ha
In short: as §1

[6] = system: sicklepod (Cassia obtusifolia, CASOB); test: as above; settings: Senna obtusifolia, post-emergence, 336 h, phytotoxicity rating 0-100 (0 no damage, 100 complete death), 14 days after application, read-out: Post-emerge Herbicidal Activity CASOB
In short: as §1

[7] = system: green foxtail (Setaria viridis, SETVI); test: as above; settings: Setaria viridis, post-emergence, 336 h, read-out: Post-emerge Herbicidal Activity SETVI; for pest or weed control at 63 g/ha: 63 g ai/ha; for pest or weed control at 250 g/ha: 250 g ai/ha
In short: as §1

[8] = system: johnsongrass (Sorghum halepense, SORHA); test: as above; settings: Sorghum halepense, post-emergence, 336 h, read-out: Post-emerge Herbicidal Activity SORHA; for pest or weed control at 63 g/ha: 63 g ai/ha; for pest or weed control at 250 g/ha: 250 g ai/ha
In short: as §1

[9] = system: barnyardgrass (Echinochloa crus-galli, ECHCG); test: as above; settings: Echinochloa crus-galli, post-emergence, 336 h, read-out: Post-emerge Herbicidal Activity ECHCG; for pest or weed control at 63 g/ha: 63 g ai/ha; for pest or weed control at 250 g/ha: 250 g ai/ha
In short: as §1

[10] = system: ivyleaf morningglory (Ipomoea hederacea, IPOHE); test: Pre-emerge test, greenhouse herbicide activity screening; settings: pre-emerge; for Pre-emerge Herbicidal Activity IPOHE (phytotoxicity rating, scale 0-100): rated 14 days after application, 0 = no damage, 100 = complete death
In short: (§2)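 Sandy loam pots; pre-emerge: sown 1 d pre-spray, surface-watered after, then bottom-watered. Post-emerge: sown 8–21 d before, 2–3 leaf stage, + 0.25% v/v NIS, bottom-watered. Acetone, 187 l/ha track spray, 15–1000 g ai/ha. 0–100 injury score, day 14.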

[11] = system: large crabgrass (Digitaria sanguinalis, DIGSA); test: as above; settings: pre-emerge; for Pre-emerge Herbicidal Activity DIGSA (phytotoxicity rating, scale 0-100): rated 14 days after application, 0 = no damage, 100 = complete death
In short: as §2

[12] = system: sicklepod (Cassia obtusifolia, CASOB); test: as above; settings: pre-emerge; for Pre-emerge Herbicidal Activity CASOB (phytotoxicity rating, scale 0-100): rated 14 days after application, 0 = no damage, 100 = complete death
In short: as §2

[13] = system: barnyardgrass (Echinochloa crus-galli, ECHCG); test: as above; settings: pre-emerge; for Pre-emerge Herbicidal Activity ECHCG (phytotoxicity rating, scale 0-100): rated 14 days after application, 0 = no damage, 100 = complete death
In short: as §2

[14] = phytotoxicity rating 0-100 (0 no damage, 100 complete death), 14 days after application
[15] = post-emerge, phytotoxicity rating 0-100 at 14 days after application

COc1c(Cl)cc(F)c(-n2c(=O)cc(C(F)(F)F)n(C)c2=O)c1[N+](=O)[O-] [Compound 1-5, 3-(4-chloro-6-fluoro-3-methoxy-2-nitrophenyl)-1-methyl-6-trifluoromethyl-2,4(1H, 3H)-pyrimidinedione]
pest or weed control at 63 g/ha [1, 14]: 0%
pest or weed control at 250 g/ha [1, 14]: 70%
pest or weed control at 63 g/ha [2, 14]: 10%
pest or weed control at 250 g/ha [2, 14]: 60%
pest or weed control at 63 g/ha [3, 14]: 0%
pest or weed control at 250 g/ha [3, 14]: 50%
pest or weed control at 63 g/ha [4, 14]: 0%
pest or weed control at 250 g/ha [4, 14]: 0%
pest or weed control at 63 g/ha [5, 14]: 0%
pest or weed control at 250 g/ha [5, 14]: 40%
pest or weed control at 63 g/ha ([6]; 63 g ai/ha): 0%
pest or weed control at 250 g/ha ([6]; 250 g ai/ha): 30%
pest or weed control at 63 g/ha [7, 14]: 0%
pest or weed control at 250 g/ha [7, 14]: 0%
pest or weed control at 63 g/ha [8, 14]: 0%
pest or weed control at 250 g/ha [8, 14]: 0%
pest or weed control at 63 g/ha [9, 14]: 0%
pest or weed control at 250 g/ha [9, 14]: 0%
Pre-emerge Herbicidal Activity IPOHE (phytotoxicity rating, scale 0-100) ([10]; 63 g ai/ha): 0
Pre-emerge Herbicidal Activity IPOHE (phytotoxicity rating, scale 0-100) ([10]; 250 g ai/ha): 10
Pre-emerge Herbicidal Activity DIGSA (phytotoxicity rating, scale 0-100) ([11]; 63 g ai/ha): 0
Pre-emerge Herbicidal Activity DIGSA (phytotoxicity rating, scale 0-100) ([11]; 250 g ai/ha): 70
Pre-emerge Herbicidal Activity CASOB (phytotoxicity rating, scale 0-100) ([12]; 63 g ai/ha): 0
Pre-emerge Herbicidal Activity CASOB (phytotoxicity rating, scale 0-100) ([12]; 250 g ai/ha): 0
Pre-emerge Herbicidal Activity ECHCG (phytotoxicity rating, scale 0-100) ([13]; 63 g ai/ha): 0
Pre-emerge Herbicidal Activity ECHCG (phytotoxicity rating, scale 0-100) ([13]; 250 g ai/ha): 0

COc1c(Cl)cc(F)c(-c2nn(C)c(C(F)(F)F)c2Cl)c1N [Compound 7-2, 4-chloro-3-(2-amino-4-chloro-6-fluoro3-metoxyphenyl)-1-methyl-5-trifluoromethyl-1H-pyrazole]
pest or weed control at 63 g/ha [1, 15]: 80%
pest or weed control at 250 g/ha [1, 15]: 100%
pest or weed control at 63 g/ha [2, 15]: 100%
pest or weed control at 250 g/ha [2, 15]: 100%
pest or weed control at 63 g/ha [3, 15]: 95%
pest or weed control at 250 g/ha [3, 15]: 100%
pest or weed control at 63 g/ha [4, 15]: 20%
pest or weed control at 250 g/ha [4, 15]: 70%
pest or weed control at 63 g/ha [5, 15]: 100%
pest or weed control at 250 g/ha [5, 15]: 100%
pest or weed control at 63 g/ha [7, 15]: 20%
pest or weed control at 250 g/ha [7, 15]: 50%
pest or weed control at 63 g/ha [8, 15]: 20%
pest or weed control at 250 g/ha [8, 15]: 40%
pest or weed control at 63 g/ha [9, 15]: 30%
pest or weed control at 250 g/ha [9, 15]: 90%
pest or weed control at 63 g/ha ([10]; Ipomoea, pre-emergence, 336 h, rate 63 g ai/ha, phytotoxicity rating 0-100 at 14 days after application, read-out: Pre-emerge Herbicidal Activity IPOHE): 60%
pest or weed control at 250 g/ha ([10]; Ipomoea, pre-emergence, 336 h, rate 250 g ai/ha, phytotoxicity rating 0-100 at 14 days after application, read-out: Pre-emerge Herbicidal Activity IPOHE): 80%
pest or weed control at 63 g/ha ([11]; Digitaria sanguinalis, pre-emergence, 336 h, rate 63 g ai/ha, phytotoxicity rating 0-100 at 14 days after application, read-out: Pre-emerge Herbicidal Activity DIGSA): 100%
pest or weed control at 250 g/ha ([11]; Digitaria sanguinalis, pre-emergence, 336 h, rate 250 g ai/ha, phytotoxicity rating 0-100 at 14 days after application, read-out: Pre-emerge Herbicidal Activity DIGSA): 100%
pest or weed control at 63 g/ha ([12]; Senna obtusifolia, pre-emergence, 336 h, rate 63 g ai/ha, phytotoxicity rating 0-100 at 14 days after application, read-out: Pre-emerge Herbicidal Activity CASOB): 30%
pest or weed control at 250 g/ha ([12]; Senna obtusifolia, pre-emergence, 336 h, rate 250 g ai/ha, phytotoxicity rating 0-100 at 14 days after application, read-out: Pre-emerge Herbicidal Activity CASOB): 30%
pest or weed control at 63 g/ha ([13]; Echinochloa crus-galli, pre-emergence, 336 h, rate 63 g ai/ha, phytotoxicity rating 0-100 at 14 days after application, read-out: Pre-emerge Herbicidal Activity ECHCG): 70%
pest or weed control at 250 g/ha ([13]; Echinochloa crus-galli, pre-emergence, 336 h, rate 250 g ai/ha, phytotoxicity rating 0-100 at 14 days after application, read-out: Pre-emerge Herbicidal Activity ECHCG): 100%
